{
  "source": "patent US20160287553A1",
  "about": "“TRANSLATION INHIBITORS IN HIGH-DOSE CHEMO- AND/OR HIGH-DOSE RADIOTHERAPY” (DEUTSCHES KREBSFORSCHUNGSZENTRUM, priority 2013, published 2016)",
  "key": {"[1]": {"system": "EU-3 (acute lymphoblastic leukemia), WT p53", "assay": "Etoposide-induced cell death in EU-3", "type": "cell-based, human", "conditions": "EU-3 (FIG. 5b)", "method": "(§1) DNA fragmentation was determined by FACS.\nSince Roc-A-mediated protection of non-malignant cells from DNA-damage-induced cell death is largely p53-dependent, we predicted that Roc-A would not protect cancer cells which have non-functional p53. […] 1997; 19: 243-253), Reh (Zhou et al, loc cit.), SKW6.4 (Barbarotto et al., J Cell Biochem. 2008; 104: 595-605) and NCI-H209 (Fujita et al. Int J Oncol. 1999; 15: 927-934) which have a WT p53 protein."}, "[2]": {"system": "p53", "assay": "p53 protein expression by immunoblot", "type": "cell-based, human", "method": "Immunoblot analysis was carried out as previously described (Polier et al., Chem Biol. 2012; 19: 1093-1104). Briefly, 4-20×10^6 cells were treated with different reagents as indicated and lysed in RIPA buffer (50 mM Tris HCl, 137 mM NaCl, 0.5% Na Deoxycholate, 1% Triton X-100, 0.1% SDS, protease inhibitors). Proteins were separated by SDS-PAGE and transferred to a nitrocellulose membrane (Amersham Biosciences, Little Chalfon, UK) using a semi-dry blotting approach. The following antibodies were used: p53 (DO-1) antibody was purchased from Santa Cruz Biotechnology (Heidelberg, Germany). Tubulin and actin (A5441) antibodies were purchased from Sigma-Aldrich (St. Louis, USA).\nThe transcription factor p53 is a major regulator of DNA damage-induced apoptosis (Lowe et al., Cell. 1993; 74: 957-967). Therefore, we investigated the effect of Roc-A on the expression level of p53.\np53 protein expression can be regulated at the level of transcription, translation, and ubiquitination-mediated degradation (Marine & Lozano, Cell Death Differ. 2010; 17: 93-102). It has been shown that upon DNA damage p53 undergoes post-translational modifications leading to its deubiquitination and, thus, stabilization (Lee & Gu, Cell Death Differ. 2010; 17: 86-92). To investigate whether Roc-A could decrease p53 stability, we treated T cells with the proteasome inhibitor Bortezomib to block proteasome-mediated degradation."}, "[3]": {"system": "p53-knockdown T cells", "assay": "Etoposide-induced cell death in p53 siRNA knock-down T cells", "type": "cell-based, human", "conditions": "Etoposide 50 μM, Roc-A 75 nM, 24 h (FIG. 4a)", "method": "as §1\nsiRNAs specific for p53 mRNA was 5′-[…]tt-3′ (SEQ ID NO: 1; [Applied Biosystems, Darmstadt, Germany]). 1.5×10^7 human peripheral blood T cells were transfected with 2 μM of p53 siRNA or of scrambled siRNA (Qiagen, Hilden, Germany) using Amaxa Human T Cell Nucleofector Kit (Lonza, Basel, Switzerland) according to the manufacturer's instructions. The Amaxa Nucleofector program U-014 was used for transfection.\nTo further investigate the role of p53 in Roc-A-mediated protection of T cells against DNA damage-induced apoptosis, we performed a p53 knock-down experiment using a siRNA approach (FIG. 4a, upper panel). […] Therefore, we examined the effect of Roc-A on p53 knock-out (KO) cells."}, "[4]": {"system": "NK cells", "assay": "Etoposide-induced apoptosis in NK cells", "type": "cell-based, human", "conditions": "NK cells (FIG. 1c)", "method": "as §1\nNext, we asked whether Roc-A could also protect other normal primary cells from DNA damage-induced toxicity. To address this question, we examined the protective effect of Roc-A on Etoposide-treated human peripheral blood B cells, NK cells, neutrophils, cardiomyocytes and murine hematopoietic stem and progenitor cells (HSPCs)."}, "[5]": {"system": "Peripheral blood T cells", "assay": "Etoposide-induced apoptotic cell death of T cells (DNA fragmentation, AnnexinV, FSC/SSC)", "method": "The human malignant cell lines EU-3 (acute lymphoblastic leukemia), DND-41 (T cell leukemia), Hut-78 (T cell lymphoma), SKW6.4 (B cell leukemia), Reh (acute lymphoblastic leukemia), IM-9 (Chronic myeloid leukemia), HL-60 (promyelocytic leukemia), L1236 (Hodgkin's lymphoma) and NCI-H209 (small cell lung cancer) were cultured at 37° C. with 5% CO2 in RPMI-1640 medium (Sigma-Aldrich, Munich, Germany) supplemented with 10% FCS, 100 U/ml Penicillin (Sigma-Aldrich, Munich, Germany) and 100 μg/ml Streptamycin (Sigma-Aldrich, Munich, Germany) SCLC-21H cells (small cell lung cancer) were cultured in DMEM medium (Sigma-Aldrich, Munich, Germany) supplemented with 10% FCS. Peripheral blood T lymphocytes were isolated as previously described (Klas et al., Int Immunol. 1993; 5: 625-630). B lymphocytes and NK cells were isolated by magnetic activated cell sorting using “B cell isolation kit II” (Miltenyi Biotech, Bergisch Gladbach, Germany) and “NK cell isolation kit, human” (Miltenyi Biotech, Bergisch Gladbach, Germany), respectively, according to the manufacturer's instructions. Human neutrophils were separated from peripheral blood mononuclear cells by Ficoll-Paque density centrifugation, followed by incubation in 1.05% dextran for 30 min at room temperature. Remaining erythrocytes were lysed by resuspension in ice-cold 0.2% sodium chloride solution. After 1 min ice-cold 1.6% sodium-chloride solution was added and lysis was stopped by addition of PBS and neutrophils were resuspended in medium at a concentration of 2×10^6 cells/ml. Human primary cardiomyocytes were purchased from PromoCell (Heidelberg, Germany) and cultured in Myocyte Growth Medium (PromoCell, Heidelberg, Germany). Remaining primary human cells were cultured in RPMI-1640 medium with the same conditions described above.\nApoptotic cell death was determined by AnnexinV staining, cellular forward scatter/side scatter (FSC/SSC) profile, or DNA fragmentation. For AnnexinV staining, 2×10^5 cells were treated with different drugs for indicated time periods, washed with AnnexinV binding buffer (0.01 M Hepes, 0.14 M NaCl, 2.5 mM CaCl2), and stained with AnnexinV-FITC antibody (Immunotools, Friesoythe, Germany) and 7-amino-actinomycin D (Sigma-Aldrich, Munich, Germany) for 30 min at 4° C. The amount of AnnexinV positive cells was determined by FACS measurement. DNA fragmentation was determined according to the method of Nicoletti (Nicoletti et al., J Immunol Methods. 1991; 139: 271-279). Briefly, 2×10^5 cells were treated as indicated, washed with PBS and lysed in Nicoletti buffer (0.1% sodium citrate, 0.1% Triton X-100, 50 μg/ml propidium iodide). DNA fragmentation was determined by FACS. Apoptosis-like cells were determined by forward scatter and side scatter (FSC/SSC) index. Specific DNA fragmentation/specific AnnexinV positive cells/specific apoptosis was calculated as follows: (percentage of experimental DNA fragmentation (or Annexin V positive cells or apoptosis)−percentage of spontaneous DNA fragmentation (or Annexin V positive cells or apoptosis)/(100−percentage of spontaneous DNA fragmentation (or Annexin V positive cells or apoptosis))×100."}},
  "note": "Entries after “also recorded” stand apart in the source; their conditions may differ.",
  "data": [
    {"compound": "COc1ccc([C@@]23Oc4cc(OC)cc(OC)c4[C@]2(O)[C@H](O)[C@H](C(=O)N(C)C)[C@H]3c2ccccc2)cc1", "note": "[Roc-A, (1R,2R,3S,3aR,8bS)-1,8b-dihydroxy-6,8-dimethoxy-3a-(4-methoxyphenyl)-N,N-dimethyl-3-phenyl-2,3-dihydro-1H-cyclopenta[b][1]benzofuran-2-carboxamide]", "values": [
      {"measurement": "Protection against Etoposide-induced cell death", "setting": "[1]", "value": "protected by Roc-A from Etoposide-induced cell death but to a lesser extent than non-malignant cells"},
      {"measurement": "Etoposide-induced p53 increase", "setting": "[2]; B cells (FIG. 3d)", "value": "inhibits Etoposide-induced p53 upregulation; also recorded: suppressed"},
      {"measurement": "Etoposide-induced p53 increase", "setting": "[2]; NK cells (FIG. 3e)", "value": "inhibits Etoposide-induced p53 upregulation; also recorded: suppressed"},
      {"measurement": "p53 upregulation by IR, Bleomycin, Teniposide, Doxorubicin", "setting": "[2]; T cells (FIG. 3b, f)", "value": "inhibits Etoposide-(a), Bleomycin-, Teniposide- and Doxorubicin-(b) induced p53 upregulation in T cells; also recorded: inhibition was also observed"},
      {"measurement": "Upregulation of p53, kinetic analysis", "setting": "[2]; T cells, 50 μM Etoposide, 75 nM Roc-A (FIG. 3c)", "value": "could inhibit upregulation of p53 at all time-points analyzed"},
      {"measurement": "Etoposide-induced p53 protein expression", "setting": "[2]; T cells, increasing Etoposide, different concentrations of Roc-A (FIG. 3a)", "value": "inhibits Etoposide-(a), Bleomycin-, Teniposide- and Doxorubicin-(b) induced p53 upregulation in T cells; also recorded: p53 expression was blocked in a dose-dependent manner"},
      {"measurement": "Etoposide-induced apoptosis in p53-knockdown cells", "setting": "[3]", "value": "could still further down-regulate Etoposide-induced apoptosis in p53-knockdown cells"},
      {"measurement": "Protection against Etoposide-induced apoptosis", "setting": "[4]", "value": "protected"},
      {"measurement": "Protection of normal T cells from Etoposide-induced cell death by Roc-derivatives", "setting": "[5]; 50 μM Etoposide, 75 nM Roc-derivative, 24 h (FIG. 6b)", "value": "different levels of protection"},
      {"measurement": "Toxicity of Etoposide, kinetic analysis", "setting": "[5]; 50 μM Etoposide, different concentrations of Roc-A, indicated time-periods (FIG. 1a middle)", "value": "could reduce the toxicity of Etoposide at all measured time points"},
      {"measurement": "Reduction of Etoposide-induced cell death of normal T cells", "setting": "[5]; 24 h, increasing concentrations of Etoposide, different concentrations of Roc-A, dose-dependent (FIG. 1a left, FIG. 7)", "value": "more than 50%"},
      {"measurement": "Chemo-protective effect when Roc-A is administered after Etoposide", "setting": "[5]; Roc-A added 2 and 4.5 h after Etoposide (50 μM) (FIG. 1a right)", "value": "chemo-protective effect could be even seen"},
      {"measurement": "Protection of T cells from Etoposide-induced apoptotic cell death", "setting": "[5]; Roc-A with Etoposide, FIG. 1a, FIG. 7", "value": "protects T cells from Etoposide-induced apoptotic cell death in a dose- and time-dependent manner; also recorded: reduces Etoposide-induced apoptosis in T cells"}
    ]}
  ]
}
